Laboratory results from ChEMBL document CHEMBL2311308, “From partial to full agonism: identification of a novel 2,4,5,6-tetrahydropyrrolo[3,4-c]pyrazole as a full agonist of the human GPR119 receptor” (Bioorg Med Chem Lett, 2013).
pEC50: −log10 of the molar value.

Legend:
[1] = physchem; settings: buffer, pH 7.4
[2] = biological target: T1, Glucose-dependent insulinotropic receptor (Homo sapiens, UniProt Q8TDV5); experiment: Agonist activity at human GPR119 expressed in HEK293 cells co-expressing CRE beta-lactamase assessed as cAMP accumulation by HTRF assay; format: functional, cell-based
T1 sequence (Q8TDV5 whole entry): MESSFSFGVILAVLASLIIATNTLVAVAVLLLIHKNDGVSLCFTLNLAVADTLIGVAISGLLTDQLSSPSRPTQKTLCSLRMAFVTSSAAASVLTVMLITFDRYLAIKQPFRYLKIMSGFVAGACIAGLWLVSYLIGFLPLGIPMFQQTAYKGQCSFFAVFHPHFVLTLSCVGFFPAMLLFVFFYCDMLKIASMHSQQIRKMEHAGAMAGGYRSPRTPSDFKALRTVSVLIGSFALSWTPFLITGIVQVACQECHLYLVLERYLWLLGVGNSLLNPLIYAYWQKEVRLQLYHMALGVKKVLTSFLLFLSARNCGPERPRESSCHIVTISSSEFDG

[3] = biological target: T2, Glucose-dependent insulinotropic receptor (Homo sapiens) (UniProt Q8TDV5); experiment: Intrinsic activity at human recombinant GPR119 expressed in HEK293 cells co-expressing CRE beta-lactamase assessed as cAMP accumulation at 10 uM by HTRF assay relative to control; format: functional, cell-based
T2 sequence (whole entry): T1 sequence (Q8TDV5 whole entry)

[4] = Intrinsic clearance in human liver microsomes; format: ADME, Microsome; settings: read-out: CLH

Row | logD [1] | pEC50 [2] | Intrinsic activity [3] | microsomal CLint [4] | SMILES
1 | 1.6 | < 5.00 | – | – | Cc1nc(S(C)(=O)=O)ccc1NCc1cnn(C2CCN(C(=O)OC(C)C)CC2)c1
2 | – | 6.06 | 105% | 10.5 µL/min/mg | CC(C)OC(=O)N1CCC(N2Cc3cn(-c4ccc(S(C)(=O)=O)cc4F)nc3C2)CC1
3 | 1.1 | 6.30 | 107% | 9.8 µL/min/mg | CCc1cnc(N2CCC([N+]3([O-])Cc4cn(-c5ccc(S(C)(=O)=O)cc5F)nc4C3)CC2)nc1 (stereo unspecified)
4 | 3 | 7.33 | 43% | 148 µL/min/mg | CCc1cnc(OC(=O)N2CCC(n3cc(CNc4ccc(S(C)(=O)=O)cc4F)cn3)CC2)nc1
5 | 2.3 | 6.74 | 41% | 9.7 µL/min/mg | CC(C)OC(=O)N1CCC(n2cc(CNc3ccc(S(C)(=O)=O)cc3F)cn2)CC1
6 | 2.9 | 7.08 | 118% | 23 µL/min/mg | CCc1cnc(N2CCC(N3Cc4cn(-c5ccc(S(C)(=O)=O)cc5F)nc4C3)CC2)nc1
7 | 2.8 | 6.62 | 24% | – | CC(C)COC(=O)N1CCC(n2cc(CNc3ccc(S(C)(=O)=O)cc3F)cn2)CC1
8 | 2.5 | 6.34 | 42% | – | CS(=O)(=O)c1ccc(NCc2cnn(C3CCN(C(=O)OC4CCC4)CC3)c2)c(F)c1
9 | 3.2 | 6.59 | 48% | 36.1 µL/min/mg | CC(C)OC(=O)N1CCC(n2cc3c(n2)CN(c2ccc(S(C)(=O)=O)cc2F)C3)CC1
